Measured values reported in patent publication US20060030537A1, “Ceramide kinase and uses thereof” (priority 2004, published 2006).

Assays:
L929 fibroblasts = test: PGE2 synthesis in L929 fibroblasts; format: cell-based; details: L929 fibroblasts
Description: FIGS. 3A-3B. FIG. 3A. The effects of ceramide-1-phosphate on TXB2 synthesis. A549 cells (1×10^5) were treated with D-e-C16 ceramide-1-phosphate (1 μM) solubilized in 2% dodecane/98% ethanol (final concentration in treatments was 0.002% dodecane/0.098% ethanol (EtOH)) for the indicated times. The results are presented as % control of TXB2 controlled for equivalent number of cells by MTT assay. Data are representative of 3 separate determinations on 2 separate occasions. FIG. 3B. The effects of ceramide-1-phosphate on AA release and PGE2 synthesis in L929 fibroblasts. L929 cells (5×10^4) were labeled overnight with 5 μCi/mL [^3H]-arachidonic acid (5 nM). Cells were washed and placed in DMEM supplemented with 2% fetal bovine serum for two hours. Cells were then treated with 2.5 μM D-e-C16 ceramide-1-phosphate (solubilized in 98% ethanol/2% dodecane) for the indicated times. […]
Quantification of prostaglandin E2 and thromboxane B2 synthesis: For measurement of PGE2 and TXB2 levels, aliquots of media were taken at indicated time points and assayed according to manufacturer's instructions using the prostaglandin E2 and thromboxane B2 monoclonal EIA Kit from Cayman Chemical. […] Results were controlled for equivalent number of cells quantified by MTT assay.

ceramide kinase = test: Ceramide kinase assay on lysates of treated or transfected A549 cells; format: cell-based, human; details: 26 hours after transfection
Description: FIGS. 5A-5C. IL-1β and calcium ionophore increase ceramide-1-phosphate production and ceramide kinase activity. FIGS. 5A and 5B. The effect of IL-1 and A23187 on C-1-P levels and AA liberation. A549 cells (2×10^5) were labeled overnight with 10 μCi/mL [^3H]-arachidonic acid (10 nM), washed, and then treated with either 2.5 ng/mL of IL-1β (FIG. 5A) or 1 μg/mL of A23187 (FIG. 5B) for the indicated times. Two hours prior to Bligh-Dyer extraction, cells were chased with 20 μM of D-e-C6 NBD-ceramide (Matreya). At the appropriate times, media was taken for AA analysis, and lipids from the cells were extracted by the Bligh-Dyer method followed by analysis of NBD-C-1-P formation. Data are presented as % control of C-1-P levels (J) and AA release (B). Data are representative of three separate determinations on 2 separate occasions. FIG. 5C. IL-1β and calcium ionophore increase ceramide kinase activity. A549 cells (5×10^5) were treated with either 2.5 ng/mL of IL-1β for 3.5 hours or 1 μg/mL of A23187 for 5 minutes. Cells were then washed, lysed in assay buffer, and assayed for ceramide kinase activity. Data is presented as % control of ceramide kinase activity (Arbitrary densitometry units of fluorescent NBD-C-1-P produced/min/mg of total cellular protein). Data are representative of three separate determinations on 2 separate occasions.
FIGS. 6A-6B. Ceramide kinase RNAi downregulates endogenous ceramide kinase activity and mRNA levels. FIG. 6A. The effect of ceramide kinase RNAi on endogenous ceramide kinase activity. […] Following the same procedure as outlined in FIG. 6A, total RNA was extracted and analyzed via logarithmic reverse-transcriptase polymerase chain reaction for human ceramide kinase and 18s ribosomal RNA. […]
Ceramide Kinase Assay: Ceramide kinase activity was measured as described previously with slight modifications (Bajjalieh, S., and Batchelor, R. (2001) Methods Enzymol. 311, 207-215). […] Following Bligh-Dyer extraction, lipids were separated by thin layer chromatography, and NBD-C-1-P was visualized/quantified by fluorescent phosphorimaging.

ceramide kinase mRNA = test: RT-PCR of ceramide kinase mRNA in A549 cells; format: cell-based, human; details: 26 hours after transfection, normalized to 18s ribosomal RNA
Description: FIGS. 6A-6B. Ceramide kinase RNAi downregulates endogenous ceramide kinase activity and mRNA levels. FIG. 6A. The effect of ceramide kinase RNAi on endogenous ceramide kinase activity. A549 cells (5×10^4) were transfected with the 21-nucleotide duplexes for ceramide kinase or scrambled control sequence. Following the 4 hour transfection, cells incubated in normal growth media for 26 hours. Cells were then washed, lysed in assay buffer, and assayed for ceramide kinase activity. Data are presented as % control ceramide kinase activity with control RNAi (Control) or ceramide kinase RNAi (CerK RNAi). Data are representative of three separate determinations on two separate occasions. FIG. 6B. The effect of ceramide kinase RNAi on the mRNA levels of ceramide kinase. Following the same procedure as outlined in FIG. 6A, total RNA was extracted and analyzed via logarithmic reverse-transcriptase polymerase chain reaction for human ceramide kinase and 18s ribosomal RNA. Data are presented as percent control after the densitometry of ceramide kinase mRNA was normalized to 18s ribosomal RNA levels with control RNAi (Control) or ceramide kinase RNAi (CerK RNAi). Data are representative of three separate determinations on two separate occasions. […]

A549 cells = format: cell-based

ceramide kinase RNAi: 21-nucleotide duplex, human ceramide kinase RNAi starting 142 nucleotides from start codon (SEQ ID NO: 3 and 4) (chain 1 UGCCUGCUCUGUGCCUGUATT; chain 2 UACAGGCACAGAGCAGGCATT; chemistry not given here)
inhibition of PGE2 synthesis in response to IL-1β (L929 fibroblasts): over 60% | decrease of endogenous ceramide kinase activity (ceramide kinase): 67% | decrease of ceramide kinase mRNA levels (ceramide kinase mRNA): 73% | effects on cell number (A549 cells): without effects
